Experimental data as given in ChEMBL document CHEMBL3585290, “Synthesis and biological evaluation of novel bivalent -carbolines as potential antitumor agents” (Medchemcomm, 2014).

Assays:
A-375 = experiment: Cytotoxicity against human A375 cells after 48 hrs by MTT assay; type: functional, cell-based; conditions: A-375, 48 h
[1] = system: Lewis lung carcinoma cell line; experiment: Antitumor activity against mouse LLC cells implanted in mouse assessed as tumor growth inhibition at 212.1 umol/kg, ip qd administered for 7 days starting 24 hrs post tumor implantation measured after day 21 relative to control; type: functional; conditions: read-out: TGI
KB = experiment: Cytotoxicity against human KB cells after 48 hrs by MTT assay; type: functional, cell-based
[2] = Acute toxicity in ip dosed C57BL/6 mouse measured for 14 days; type: organism-based; conditions: in vivo
769-P = experiment: Cytotoxicity against human 769-P cells after 48 hrs by MTT assay; type: functional, cell-based
SK-OV-3 = experiment: Cytotoxicity against human SKOV3 cells after 48 hrs by MTT assay; type: functional, cell-based; conditions: SK-OV-3, 48 h
CT26 [3] = experiment: Antitumor activity against mouse CT26 cells implanted in mouse assessed as tumor growth inhibition at 212.1 umol/kg, ip qd administered for 7 days starting 24 hrs post tumor implantation measured after day 21 relative to control; type: functional; conditions: read-out: TGI
[4] = Cytotoxicity against human BGC823 cells after 48 hrs by MTT assay; type: functional, cell-based; conditions: BGC-823, 48 h
CT26 [5] = experiment: animal or person; conditions: Mus musculus, CT26, ip, read-out: TGI
Description: Antitumor activity against mouse CT26 cells implanted in mouse assessed as tumor growth inhibition at 114.9 umol/kg, ip qd administered for 7 days starting 24 hrs post tumor implantation measured after day 21 relative to control

[6] = system: Lewis lung carcinoma cell line; experiment: animal or person; conditions: Mus musculus, ip, read-out: TGI
Description: Antitumor activity against mouse LLC cells implanted in mouse assessed as tumor growth inhibition at 114.9 umol/kg, ip qd administered for 7 days starting 24 hrs post tumor implantation measured after day 21 relative to control

`O=C(O)c1cc2c3ccccc3n(CCCc3ccccc3)c2cn1` gave an IC50 (A-375) of 67.6 µM, an inhibition in vivo at 212.1 µmol/kg [1] of 40.3% and an IC50 (KB) of 86.4 µM. The LD50 at 336 h [2] was 1090 µmol/kg, the IC50 (769-P) was 56.8 µM and the IC50 (SK-OV-3) was greater than 200 µM. For the same compound, the inhibition in vivo at 212.1 µmol/kg (CT26 [3]) was 20.3% and the IC50 [4] was 36.7 µM.

`O=P1(N(CCCl)CCCl)NCCCO1` (stereo not given) [CYCLOPHOSPHAMIDE ANHYDROUS] showed an inhibition in vivo at 114.9 µmol/kg (CT26 [5]) of 87.6% and an inhibition in vivo at 114.9 µmol/kg [6] of 88.1%.
